According to ChEMBL document CHEMBL2434861, “Novel promising linezolid analogues: rational design, synthesis and biological evaluation” (2013):
≈ marks a conversion by molar mass, not a printed value.

Tests used:
[1] = tested on: Staphylococcus aureus; experiment: Antimicrobial activity against methicillin-susceptible Staphylococcus aureus ATCC 29213 after 16 to 20 hrs by microdilution method; format: functional
[2] = tested on: Staphylococcus aureus; experiment: Antimicrobial activity against methicillin-resistant Staphylococcus aureus ATCC 43300 after 16 to 20 hrs by microdilution method; format: functional

| SMILES | MIC [1] [µg/mL] | MIC [2] [µg/mL] |
| --- | --- | --- |
| CC(=O)NC[C@H]1CN(c2ccc(N3CCOCC3)c(F)c2)C(=O)O1 [LINEZOLID] | 1 (≈ 2.96 µM) | 1 (≈ 2.96 µM) |
| O=C(NC[C@H]1CN(c2ccc(N3CCOCC3)c(F)c2)C(=O)O1)Nc1ccc([N+](=O)[O-])cc1 | > 100 | – |
| O=C1O[C@@H](CNC(=S)Nc2ccc([N+](=O)[O-])cc2)CN1c1ccc(N2CCOCC2)c(F)c1 | 2 (≈ 4.21 µM) | 1 (≈ 2.1 µM) |

Further lines, with some results ahead:

| MIC [1] [µg/mL] | SMILES | MIC [2] [µg/mL] |
| --- | --- | --- |
| > 100 | COc1ccc(NC(=O)NC[C@H]2CN(c3ccc(N4CCOCC4)c(F)c3)C(=O)O2)cc1 | – |
| > 100 | COc1ccc(NC(=S)NC[C@H]2CN(c3ccc(N4CCOCC4)c(F)c3)C(=O)O2)cc1 | – |
| > 100 | O=C(NC[C@H]1CN(c2ccc(N3CCOCC3)c(F)c2)C(=O)O1)Nc1ccccc1 | – |
| 10 (≈ 23.2 µM) | O=C1O[C@@H](CNC(=S)Nc2ccccc2)CN1c1ccc(N2CCOCC2)c(F)c1 | – |
